In ChEMBL document CHEMBL5729275 (2022):

Assay: RSV-A Assay : Hep-2 cells, (originally derived from tumors grown in irradiated-cortisonised weanling rats that had been injected with epidermoid carcinoma tissue from a person's larynx, but later found to be indistinguishable from HeLa cells by PCR DNA analysis), were used for the culturing of genotype A, “Long” strain RSV. Flasks were inoculated with RSV and viral stocks were collected once cytopathic effect (CPE) was greater than 90%. Viral stocks in 25% sucrose media were snap frozen using liquid nitrogen to increase viral stability. Viral stock titers were quantified by tissue culture infectious dose 50% (TCID50) using 8,000 cells per well and 3-fold viral dilutions across a 96-well plate, cultured for 4 days. Viral stock titers were also quantified by a plaque forming unit assay, as described elsewhere.Following extensive parameter testing, the final assay is run as follows: Hep-2 cells are seeded into the inner 60 wells of a 96-well plate at 8,000 cells per well in a volume of 50 μL using Growth Media (DMEM without phenol red, 1% L-Glut, 1% Penn/Strep, 1% nonessential amino acids, 10% heat-inactivated FBS). 2-fold serial dilutions of control and test compounds are added to the wells in duplicate in a total volume of 25 μL. Viral stock is then added to the wells at a multiplicity of infection (MOI) of 0.1 in a volume of 25 μL, bringing the total volume of each well to 100 μL. The MOI is calculated using the PFU/mL, or TCID50 if unavailable. Each 96-well plate has a control column of 6 wells with cells and virus but no compound (negative control, max CPE), a column with cells but no compound or virus (positive control, minimum CPE), and a column with no cells or virus or compound (background plate/reagent control). The control wells with cells but no virus are given an additional […], of growth media containing an equal quantity of sucrose as those wells receiving the viral stock in order to keep consistent in media and volume conditions. The outer wells of the plate are filled with 125 μL of moat media (DMEM, 1% Penn/Strep) to act as a thermal and evaporative moat around the test wells. Following a 5-day incubation period, the plates are read using ATPlite (50 uL added per well), which quantifies the amount of ATP (a measure of cell health) present in each well. Assay plates are read using the Envision luminometer.

Row | SMILES | EC50
1 | C[C@](O)(CNC(=O)c1ccc(OC2CC2)c(OC2CC2)c1)c1cc2c(c(-c3ccc(F)c(F)c3)n1)OC[C@@]2(N)C(F)(F)F | < 200 nM
2 | COc1cnc(C(=O)NC[C@](O)(c2cc3c(c(-c4ccc(F)cc4)n2)OC[C@@]3(N)C(F)(F)F)C(F)(F)F)cc1OC | > 200 nM
3 | COc1cc(C(=O)NC[C@](O)(c2cc3c(c(-c4ccc(F)cc4)n2)OC[C@@]3(N)C(F)(F)F)C(F)(F)F)ccc1OC1CC1 | < 200 nM
4 | COc1cc(C(=O)NC[C@](O)(c2cc3c(c(-c4ccc(F)cc4)n2)OC[C@@]3(N)C(F)(F)F)C(F)(F)F)cc(F)c1OC1CC1 | > 200 nM
5 | COc1cc(C(=O)NC[C@](O)(c2cc3c(c(-c4ccc(F)cc4)n2)OC[C@@]3(N)C(F)(F)F)C2CC2)cc2cn(C)nc12 | < 200 nM
6 | COc1cc(F)c(C(=O)NC[C@](O)(c2cc3c(c(-c4ccc(F)cc4)n2)OC[C@@]3(N)C(F)(F)F)C(F)(F)F)cc1OC | > 200 nM
7 | COc1cc(C(=O)NC[C@](O)(c2cc3c(c(-c4ccc(F)c(Cl)c4)n2)OC[C@@]3(N)C(F)(F)F)C2CC2)ccc1OC1CC1 | < 200 nM
8 | COC[C@](O)(CNC(=O)c1ccc(OC2CC2)c(OC)c1)c1cc2c(c(-c3ccc(F)cc3)n1)OC[C@@]2(N)C(F)(F)F | < 200 nM
9 | COC(=O)N[C@@]1(C(F)(F)F)COc2c1cc([C@@](C)(O)CNC(=O)c1ccc(OC3CC3)c(OC)c1)nc2-c1ccc(F)cc1 | < 200 nM
10 | COc1cc(C(=O)NC[C@](O)(c2cc3c(c(-c4ccc(F)cc4)n2)OC[C@@]3(N)C(F)(F)F)C(F)(F)F)cc2cccnc12 | < 200 nM
11 | COc1cc(C(=O)NC[C@](O)(c2cc3c(c(-c4ccc(F)cc4)n2)OC[C@@]3(NC(=O)COC(C)=O)C(F)(F)F)C(F)(F)F)ccc1OC1CC1 | < 200 nM
12 | COc1cc(C(=O)NC[C@](O)(c2cc3c(c(-c4ccc(F)cc4)n2)OC[C@@]3(NC(=O)CO)C(F)(F)F)C(F)(F)F)ccc1OC1CC1 | < 200 nM
13 | COc1cc(C(=O)NC[C@](O)(c2cc3c(c(-c4ccc(F)cc4)n2)OC[C@@]3(N)C(F)(F)F)C2COC2)ccc1OC1CC1 | > 200 nM
14 | COc1cc(C(=O)NC[C@@](O)(CO)c2cc3c(c(-c4ccc(F)cc4)n2)OC[C@@]3(N)C(F)(F)F)ccc1OC1CC1 | < 200 nM
15 | N[C@@]1(C(F)(F)F)COc2c1cc([C@@](O)(CNC(=O)c1cc(OC3CC3)c3nn(C4CC4)cc3c1)C1CC1)nc2-c1ccc(F)c(Cl)c1 | < 200 nM
16 | COc1cc(C(=O)NC[C@](O)(c2cc3c(c(-c4ccc(F)cc4)n2)OC[C@@]3(N)C(F)(F)F)C2CC2)ccc1OC1CC1 | < 200 nM
17 | COc1cc(C(=O)NC[C@](O)(c2cc3c(c(-c4ccc(F)cc4)n2)OC[C@@]3(N)C(F)(F)F)C(F)(F)F)ccc1OCCO | > 200 nM
18 | COc1cc(C(=O)NC[C@](O)(c2cc3c(c(-c4ccc(F)cc4)n2)OC[C@@]3(N)C(F)(F)F)C(F)(F)F)nc2ccccc12 | > 200 nM
19 | COc1cc(C(=O)NC[C@](C)(O)c2cc3c(c(-c4ccc(F)cc4)n2)OC[C@@]3(NS(=O)(=O)C(C)(C)C)C(F)(F)F)cc2cccnc12 | > 200 nM
20 | C[C@](O)(CNC(=O)c1ccc(OC2CC2)c(OC2CC2)c1)c1cc2c(c(-c3ccc(F)cc3)n1)OC[C@@]2(N)C(F)(F)F | < 200 nM
21 | COc1cc(C(=O)NC[C@@](O)(c2cc3c(c(-c4ccc(F)cc4)n2)OC[C@]3(N)C(F)(F)F)C(F)(F)F)ccc1OCCO | > 200 nM

Row | SMILES | EC50
22 | N[C@@]1(C(F)(F)F)COc2c1cc([C@@](O)(CNC(=O)c1ccc(OC3CC3)c(OC3CC3)c1)C1CC1)nc2-c1ccc(F)c(F)c1 | < 200 nM
23 | COc1cc(C(=O)NC[C@](O)(c2cc3c(c(-c4ccc(F)cc4)n2)OC[C@@]3(N)C(F)(F)F)C2CC2)cc2cccnc12 | < 200 nM
24 | COc1cc(C(=O)NC[C@](O)(c2cc3c(c(-c4ccc(F)cc4)n2)OC[C@]3(N)C(F)(F)F)C(F)(F)F)ccc1OCCO | > 200 nM
25 | COc1cc(C(=O)NC[C@](O)(c2cc3c(c(-c4ccc(F)cc4)n2)OC[C@@]3(N)C(F)(F)F)C(F)(F)F)ccc1C(F)(F)F | > 200 nM
26 | C[C@](O)(CNC(=O)c1cc(OC2CC2)c2ncccc2c1)c1cc2c(c(-c3ccc(F)c(Cl)c3)n1)OC[C@@]2(N)C(F)(F)F | > 200 nM
27 | CC(C)(C)S(=O)(=O)N[C@@]1(C(F)(F)F)COc2c1cc([C@@](C)(O)CNC(=O)c1cc(OC3CC3)c3ncccc3c1)nc2-c1ccc(F)cc1 | > 200 nM
28 | N[C@@]1(C(F)(F)F)COc2c1cc([C@@](O)(CNC(=O)c1cc(OC3CC3)c3nn(C4CC4)cc3c1)C1CC1)nc2-c1ccc(F)cc1 | < 200 nM
29 | COc1ccc(C(=O)NC[C@](O)(c2cc3c(c(-c4ccc(F)cc4)n2)OC[C@@]3(N)C(F)(F)F)C(F)(F)F)cc1OC | > 200 nM
30 | N[C@@]1(C(F)(F)F)COc2c1cc([C@@](O)(CNC(=O)c1cc(OC3CC3)c3ncccc3c1)C1CC1)nc2-c1ccc(F)c(Cl)c1 | < 200 nM
31 | COc1cccc2cc(C(=O)NC[C@](O)(c3cc4c(c(-c5ccc(F)cc5)n3)OC[C@@]4(N)C(F)(F)F)C(F)(F)F)cnc12 | > 200 nM
32 | COc1cc(C(=O)NC[C@](C)(O)c2cc3c(c(-c4ccc(F)cc4)n2)OC[C@@]3(N)C(F)(F)F)cc2cccnc12 | < 200 nM
33 | COc1cc(C(=O)NC[C@](O)(c2cc3c(c(-c4ccc(F)cc4)n2)OC[C@]3(N)C(F)(F)F)C(F)(F)F)ccc1OC1CC1 | < 200 nM
34 | COc1cc(C(=O)NCC(C)c2cc3c(c(-c4ccc(F)c(F)c4)n2)OC[C@@]3(N)C(F)(F)F)ccc1OC1CC1 (stereo partly specified) | > 200 nM
35 | COC(=O)N[C@@]1(C(F)(F)F)COc2c1cc([C@@](O)(CNC(=O)c1ccc(OC3CC3)c(OC)c1)C(F)(F)F)nc2-c1ccc(F)cc1 | > 200 nM
36 | N[C@@]1(C(F)(F)F)COc2c1cc([C@@](O)(CNC(=O)c1ccc(OC3CC3)c(OC3CC3)c1)C1CC1)nc2-c1ccc(F)c(Cl)c1 | < 200 nM
37 | N[C@@]1(C(F)(F)F)COc2c1cc([C@](O)(CO)CNC(=O)c1cc(OC3CC3)c3ncccc3c1)nc2-c1ccc(F)cc1 | > 200 nM
38 | COc1cc(C(=O)NC[C@](C)(O)c2cc3c(c(-c4ccc(F)cc4)n2)OC[C@@]3(NC(=N)NC#N)C(F)(F)F)ccc1OC1CC1 | < 200 nM
39 | COc1cc(C(=O)NC[C@](O)(c2cc3c(c(-c4ccc(F)cc4)n2)OC[C@@]3(N)C(F)(F)F)C2CC2)cc2sc(N)nc12 | < 200 nM
40 | N[C@@]1(C(F)(F)F)COc2c1cc([C@@](O)(CNC(=O)c1ccc(OC3CC3)c(OC3CC3)c1)C1CC1)nc2-c1ccc(F)cc1 | < 200 nM
41 | COc1cc(C(=O)NC[C@](O)(c2cc3c(c(-c4ccc(F)cc4)n2)OC[C@@]3(N)C(F)(F)F)C(F)(F)F)ccc1OCC(C)C | > 200 nM
42 | COC[C@](O)(CNC(=O)c1cc(OC2CC2)c2ncccc2c1)c1cc2c(c(-c3ccc(F)cc3)n1)OC[C@@]2(N)C(F)(F)F | < 200 nM

Row | SMILES | EC50
43 | COc1cc(C(=O)NC[C@@](O)(c2cc3c(c(-c4ccc(F)cc4)n2)OC[C@@]3(N)C(F)(F)F)C(F)(F)F)ccc1OC1CC1 | > 200 nM
44 | N[C@@]1(C(F)(F)F)COc2c1cc([C@@](O)(CNC(=O)c1cc(OC3CC3)c3ncccc3c1)C1CC1)nc2-c1ccc(F)cc1 | < 200 nM
45 | COc1cc(C(=O)NC[C@](O)(c2cc3c(c(-c4ccc(F)cc4)n2)OC[C@@]3(N)C(F)(F)F)C(C)(C)C)ccc1OC1CC1 | > 200 nM
46 | Nc1nc2ccc(C(=O)NC[C@](O)(c3cc4c(c(-c5ccc(F)cc5)n3)OC[C@@]4(N)C(F)(F)F)C3CC3)cc2s1 | < 200 nM
47 | COc1cc(C(=O)NC[C@](O)(c2cc3c(c(-c4ccc(F)c(F)c4)n2)OC[C@@]3(N)C(F)(F)F)C2CC2)ccc1OC1CC1 | < 200 nM
48 | COc1ccc2nc(C(=O)NC[C@](O)(c3cc4c(c(-c5ccc(F)cc5)n3)OC[C@@]4(N)C(F)(F)F)C(F)(F)F)cc(OC)c2c1 | > 200 nM
49 | COc1cc(C(=O)NC[C@](C)(O)c2cc3c(c(-c4ccc(F)cc4)n2)OC[C@@]3(N)C(F)(F)F)ccc1OC1CC1 | < 200 nM
50 | COc1cc(C(=O)NC[C@](O)(c2cc3c(c(-c4ccc(F)cc4)n2)OC[C@]3(N)C(F)(F)F)C(F)(F)F)cc2cccnc12 | < 200 nM
51 | COc1cc(C(=O)NC[C@@](O)(CF)c2cc3c(c(-c4ccc(F)cc4)n2)OC[C@@]3(N)C(F)(F)F)ccc1OC1CC1 | < 200 nM
52 | Nc1nc2c(F)cc(C(=O)NC[C@](O)(c3cc4c(c(-c5ccc(F)cc5)n3)OC[C@@]4(N)C(F)(F)F)C3CC3)cc2s1 | < 200 nM
53 | COc1cc(C(=O)NC[C@](C)(O)c2cc3c(c(-c4ccc(F)c(Cl)c4)n2)OC[C@@]3(N)C(F)(F)F)ccc1OC1CC1 | < 200 nM
54 | COc1cc(C(=O)NC[C@](C)(O)c2cc3c(c(-c4ccc(F)c(F)c4)n2)OC[C@@]3(N)C(F)(F)F)ccc1OC1CC1 | < 200 nM
55 | C[C@](O)(CNC(=O)c1ccc(OC2CC2)c(-c2cccnc2)c1)c1cc2c(c(-c3ccc(F)cc3)n1)OC[C@@]2(N)C(F)(F)F | < 200 nM
56 | COCCOc1ccc(C(=O)NC[C@](O)(c2cc3c(c(-c4ccc(F)cc4)n2)OC[C@@]3(N)C(F)(F)F)C(F)(F)F)cc1OC | > 200 nM
57 | COc1cc(C(=O)NC[C@H](O)c2cc3c(c(-c4ccc(F)cc4)n2)OC[C@@]3(N)C(F)(F)F)ccc1OC1CC1 | > 200 nM
58 | C[C@](O)(CNC(=O)c1cc(OC2CC2)c2ncccc2c1)c1cc2c(c(-c3ccc(F)cc3)n1)OC[C@@]2(N)C(F)(F)F | < 200 nM
59 | N[C@@]1(C(F)(F)F)COc2c1cc([C@@](O)(CNC(=O)c1cc(OC3CC3)c3ncccc3c1)C1COC1)nc2-c1ccc(F)cc1 | > 200 nM
60 | COc1cc(C(=O)NC[C@@](O)(c2cc3c(c(-c4ccc(F)cc4)n2)OC[C@]3(N)C(F)(F)F)C(F)(F)F)ccc1OC1CC1 | > 200 nM
61 | C[C@](O)(CNC(=O)c1ccc(OC2CC2)c(OC2CC2)c1)c1cc2c(c(-c3ccc(F)c(Cl)c3)n1)OC[C@@]2(N)C(F)(F)F | < 200 nM
